Activity calls are given as the source filed them. The calls are words filed in the database; no cut-off is given here.
How the values were obtained:
[1] = molecular target: T1, C-X-C chemokine receptor type 2 (Homo sapiens, UniProt P25025); assay: Antagonist activity at human CXCR2 expressed in HEK293 cells assessed as inhibition of CXCL8-induced beta-arrestin recruitment preincubated for 30 mins followed by addition of agonist incubated for 90 mins by beta arrestin assay; type: functional, cell-based
T1 sequence (P25025 whole entry): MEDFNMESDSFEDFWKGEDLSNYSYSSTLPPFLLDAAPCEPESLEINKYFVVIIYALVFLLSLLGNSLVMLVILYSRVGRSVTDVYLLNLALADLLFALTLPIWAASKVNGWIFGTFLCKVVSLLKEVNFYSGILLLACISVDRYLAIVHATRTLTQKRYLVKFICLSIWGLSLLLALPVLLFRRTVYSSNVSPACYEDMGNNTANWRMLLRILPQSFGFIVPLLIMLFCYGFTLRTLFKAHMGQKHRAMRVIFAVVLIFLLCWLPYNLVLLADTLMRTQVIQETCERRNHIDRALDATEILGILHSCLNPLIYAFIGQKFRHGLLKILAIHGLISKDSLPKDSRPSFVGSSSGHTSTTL

[2] = molecular target: T1, C-X-C chemokine receptor type 2; assay: Displacement of [I-125]-interleukin-8 against human recombinant CXCR2 expressed in CHO-K1 cells incubated for 60 mins by radio ligand binding assay; type: cell-based
[3] = molecular target: C-C chemokine receptor type 1 (Homo sapiens) (UniProt P32246); assay: Antagonist activity against CCR1 (unknown origin) assessed as inhibition of beta-arrestin 2 recruitment at 10 microM by beta arrestin assay relative to control; type: functional; parameters: scale not given: the % may be the effect or the level left; details: filed as antagonist
C-C chemokine receptor type 1 (Homo sapiens), sequence (P32246 whole entry): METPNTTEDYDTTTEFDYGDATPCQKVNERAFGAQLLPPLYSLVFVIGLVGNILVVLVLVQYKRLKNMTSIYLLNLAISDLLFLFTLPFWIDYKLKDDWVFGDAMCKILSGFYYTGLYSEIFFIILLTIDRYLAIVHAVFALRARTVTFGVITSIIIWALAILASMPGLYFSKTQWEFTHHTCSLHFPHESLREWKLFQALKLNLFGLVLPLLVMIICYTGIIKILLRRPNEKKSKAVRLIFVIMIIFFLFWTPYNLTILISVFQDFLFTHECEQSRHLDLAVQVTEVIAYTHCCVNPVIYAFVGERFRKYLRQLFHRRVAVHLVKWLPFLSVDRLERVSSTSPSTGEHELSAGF

[4] = molecular target: C-C chemokine receptor type 3 (Homo sapiens) (UniProt P51677); assay: Agonist activity against CCR3 (unknown origin) assessed as induction of beta-arrestin 2 recruitment at 10 microM by beta arrestin assay relative to control; type: functional
C-C chemokine receptor type 3 (Homo sapiens), sequence (P51677 whole entry): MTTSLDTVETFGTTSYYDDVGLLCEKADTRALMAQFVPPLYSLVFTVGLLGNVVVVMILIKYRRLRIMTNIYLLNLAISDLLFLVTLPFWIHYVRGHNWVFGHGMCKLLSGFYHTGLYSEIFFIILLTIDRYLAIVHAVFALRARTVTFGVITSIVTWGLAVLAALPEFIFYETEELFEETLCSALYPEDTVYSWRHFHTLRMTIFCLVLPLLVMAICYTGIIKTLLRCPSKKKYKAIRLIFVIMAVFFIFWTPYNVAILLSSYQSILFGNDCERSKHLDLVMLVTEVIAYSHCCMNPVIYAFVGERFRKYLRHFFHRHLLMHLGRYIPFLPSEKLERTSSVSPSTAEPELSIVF

[5] = molecular target: C-C chemokine receptor type 3 (Homo sapiens) (UniProt P51677); assay: Antagonist activity against CCR3 (unknown origin) assessed as inhibition of beta-arrestin 2 recruitment at 10 microM by beta arrestin assay relative to control; type: functional; parameters: scale not given: the % may be the effect or the level left
[6] = molecular target: C-C chemokine receptor type 4 (Homo sapiens) (UniProt P51679); assay: Antagonist activity against CCR4 (unknown origin) assessed as inhibition of beta-arrestin 2 recruitment at 10 microM by beta arrestin assay relative to control; type: functional; parameters: scale not given: the % may be the effect or the level left
C-C chemokine receptor type 4 (Homo sapiens), sequence (P51679 whole entry): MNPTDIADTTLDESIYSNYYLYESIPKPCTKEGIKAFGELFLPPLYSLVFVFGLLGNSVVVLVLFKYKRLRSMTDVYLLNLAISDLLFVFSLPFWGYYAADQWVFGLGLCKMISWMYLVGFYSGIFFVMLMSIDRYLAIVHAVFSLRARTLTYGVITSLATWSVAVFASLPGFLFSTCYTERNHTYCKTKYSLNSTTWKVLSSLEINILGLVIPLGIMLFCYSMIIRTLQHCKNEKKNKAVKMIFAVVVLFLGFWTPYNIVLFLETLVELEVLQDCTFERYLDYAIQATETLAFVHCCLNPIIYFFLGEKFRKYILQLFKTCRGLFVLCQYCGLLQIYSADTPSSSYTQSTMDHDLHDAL

[7] = molecular target: C-C chemokine receptor type 9 (Homo sapiens) (UniProt P51686); assay: Antagonist activity against CCR9 (unknown origin) assessed as inhibition of beta-arrestin 2 recruitment at 10 microM by beta arrestin assay relative to control; type: functional; parameters: scale not given: the % may be the effect or the level left
C-C chemokine receptor type 9 (Homo sapiens), sequence (P51686 whole entry): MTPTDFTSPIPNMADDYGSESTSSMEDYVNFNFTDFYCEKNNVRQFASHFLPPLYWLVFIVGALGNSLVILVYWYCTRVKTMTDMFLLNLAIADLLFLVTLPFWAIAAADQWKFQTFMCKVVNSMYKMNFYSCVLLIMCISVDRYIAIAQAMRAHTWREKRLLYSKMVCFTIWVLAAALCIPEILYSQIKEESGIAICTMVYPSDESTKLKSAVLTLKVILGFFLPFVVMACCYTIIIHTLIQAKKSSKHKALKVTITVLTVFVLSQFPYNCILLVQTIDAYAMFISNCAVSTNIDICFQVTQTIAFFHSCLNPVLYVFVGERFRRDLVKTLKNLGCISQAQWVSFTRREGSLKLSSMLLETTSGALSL

[8] = molecular target: Chemerin-like receptor 1 (Homo sapiens) (UniProt Q99788); assay: Agonist activity against CMKLR1 (unknown origin) assessed as induction of beta-arrestin 2 recruitment at 10 microM by beta arrestin assay relative to control; type: functional
Chemerin-like receptor 1 (Homo sapiens), sequence (Q99788 whole entry): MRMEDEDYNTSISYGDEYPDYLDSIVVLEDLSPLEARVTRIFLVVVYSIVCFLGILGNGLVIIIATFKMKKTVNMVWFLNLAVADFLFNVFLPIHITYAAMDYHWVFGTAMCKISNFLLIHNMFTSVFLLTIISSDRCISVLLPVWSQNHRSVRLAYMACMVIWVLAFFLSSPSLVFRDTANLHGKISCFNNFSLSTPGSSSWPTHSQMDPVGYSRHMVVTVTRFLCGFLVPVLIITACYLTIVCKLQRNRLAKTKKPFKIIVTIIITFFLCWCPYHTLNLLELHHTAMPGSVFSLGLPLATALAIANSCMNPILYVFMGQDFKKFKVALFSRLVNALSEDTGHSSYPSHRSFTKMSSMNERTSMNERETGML

[9] = molecular target: CX3C chemokine receptor 1 (Homo sapiens) (UniProt P49238); assay: Agonist activity against CX3CR1 (unknown origin) assessed as induction of beta-arrestin 2 recruitment at 10 microM by beta arrestin assay relative to control; type: functional
CX3C chemokine receptor 1 (Homo sapiens), sequence (P49238 whole entry): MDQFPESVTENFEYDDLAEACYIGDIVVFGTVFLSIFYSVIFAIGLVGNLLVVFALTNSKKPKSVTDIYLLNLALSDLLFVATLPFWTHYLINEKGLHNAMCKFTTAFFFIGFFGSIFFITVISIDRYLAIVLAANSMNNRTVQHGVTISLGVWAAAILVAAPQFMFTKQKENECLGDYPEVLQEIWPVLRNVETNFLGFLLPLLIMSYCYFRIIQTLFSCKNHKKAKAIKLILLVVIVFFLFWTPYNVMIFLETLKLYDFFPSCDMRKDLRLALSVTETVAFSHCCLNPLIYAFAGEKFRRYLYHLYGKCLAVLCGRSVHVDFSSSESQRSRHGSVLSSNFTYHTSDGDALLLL

[10] = molecular target: C-X-C chemokine receptor type 1 (Homo sapiens) (UniProt P25024); assay: Agonist activity against CXCR1 (unknown origin) assessed as induction of beta-arrestin 2 recruitment at 10 microM by beta arrestin assay relative to control; type: functional
C-X-C chemokine receptor type 1 (Homo sapiens), sequence (P25024 whole entry): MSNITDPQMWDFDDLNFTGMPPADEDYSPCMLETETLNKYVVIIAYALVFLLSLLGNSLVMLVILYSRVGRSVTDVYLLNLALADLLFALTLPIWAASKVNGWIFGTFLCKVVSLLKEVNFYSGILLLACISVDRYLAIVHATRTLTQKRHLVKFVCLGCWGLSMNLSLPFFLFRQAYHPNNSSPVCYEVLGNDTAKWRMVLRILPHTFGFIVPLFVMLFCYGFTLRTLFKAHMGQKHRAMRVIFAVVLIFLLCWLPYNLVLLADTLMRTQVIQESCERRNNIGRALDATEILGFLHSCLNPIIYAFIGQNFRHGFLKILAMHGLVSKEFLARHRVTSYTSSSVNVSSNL

[11] = molecular target: C-X-C chemokine receptor type 4 (Homo sapiens) (UniProt P61073); assay: Antagonist activity against CXCR4 (unknown origin) assessed as inhibition of beta-arrestin 2 recruitment at 10 microM by beta arrestin assay relative to control; type: functional; parameters: scale not given: the % may be the effect or the level left
C-X-C chemokine receptor type 4 (Homo sapiens), sequence (P61073 whole entry): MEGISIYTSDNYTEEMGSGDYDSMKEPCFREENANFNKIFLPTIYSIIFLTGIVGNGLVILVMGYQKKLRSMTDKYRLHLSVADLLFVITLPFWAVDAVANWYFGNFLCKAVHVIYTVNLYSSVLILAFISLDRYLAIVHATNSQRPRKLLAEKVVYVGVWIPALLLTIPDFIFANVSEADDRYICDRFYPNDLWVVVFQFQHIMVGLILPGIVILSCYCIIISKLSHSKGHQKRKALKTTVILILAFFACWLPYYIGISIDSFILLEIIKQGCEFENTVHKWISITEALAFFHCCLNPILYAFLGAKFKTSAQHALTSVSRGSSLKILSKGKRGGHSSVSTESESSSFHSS

[12] = molecular target: C-X-C chemokine receptor type 5 (Homo sapiens) (UniProt P32302); assay: Agonist activity against CXCR5 (unknown origin) assessed as induction of beta-arrestin 2 recruitment at 10 microM by beta arrestin assay relative to control; type: functional
C-X-C chemokine receptor type 5 (Homo sapiens), sequence (P32302 whole entry): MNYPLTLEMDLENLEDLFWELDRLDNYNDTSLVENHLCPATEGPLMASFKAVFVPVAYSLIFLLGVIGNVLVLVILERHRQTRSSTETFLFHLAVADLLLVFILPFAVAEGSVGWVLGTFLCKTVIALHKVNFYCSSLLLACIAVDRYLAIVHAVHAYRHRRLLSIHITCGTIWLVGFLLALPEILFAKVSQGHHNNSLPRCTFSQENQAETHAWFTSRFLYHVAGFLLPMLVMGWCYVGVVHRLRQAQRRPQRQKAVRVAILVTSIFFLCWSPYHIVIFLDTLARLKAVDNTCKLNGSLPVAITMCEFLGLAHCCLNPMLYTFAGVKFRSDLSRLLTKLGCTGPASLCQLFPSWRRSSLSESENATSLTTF

[13] = molecular target: C-X-C chemokine receptor type 6 (Homo sapiens) (UniProt O00574); assay: Agonist activity against CXCR6 (unknown origin) assessed as induction of beta-arrestin 2 recruitment at 10 microM by beta arrestin assay relative to control; type: functional
C-X-C chemokine receptor type 6 (Homo sapiens), sequence (O00574 whole entry, looked up): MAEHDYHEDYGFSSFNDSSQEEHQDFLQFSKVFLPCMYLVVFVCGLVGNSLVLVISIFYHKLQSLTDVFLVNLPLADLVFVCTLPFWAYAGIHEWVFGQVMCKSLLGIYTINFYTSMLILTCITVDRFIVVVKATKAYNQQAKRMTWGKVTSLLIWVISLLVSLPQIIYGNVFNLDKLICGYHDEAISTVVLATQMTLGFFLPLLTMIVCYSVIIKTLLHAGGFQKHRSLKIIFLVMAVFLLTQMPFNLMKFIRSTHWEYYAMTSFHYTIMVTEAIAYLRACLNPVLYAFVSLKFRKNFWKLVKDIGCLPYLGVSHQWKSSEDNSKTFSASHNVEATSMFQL

[14] = molecular target: Atypical chemokine receptor 3 (Homo sapiens) (UniProt P25106); assay: Agonist activity against CXCR7 (unknown origin) assessed as induction of beta-arrestin 2 recruitment at 10 microM by beta arrestin assay relative to control; type: functional
Atypical chemokine receptor 3 (Homo sapiens), sequence (P25106 whole entry): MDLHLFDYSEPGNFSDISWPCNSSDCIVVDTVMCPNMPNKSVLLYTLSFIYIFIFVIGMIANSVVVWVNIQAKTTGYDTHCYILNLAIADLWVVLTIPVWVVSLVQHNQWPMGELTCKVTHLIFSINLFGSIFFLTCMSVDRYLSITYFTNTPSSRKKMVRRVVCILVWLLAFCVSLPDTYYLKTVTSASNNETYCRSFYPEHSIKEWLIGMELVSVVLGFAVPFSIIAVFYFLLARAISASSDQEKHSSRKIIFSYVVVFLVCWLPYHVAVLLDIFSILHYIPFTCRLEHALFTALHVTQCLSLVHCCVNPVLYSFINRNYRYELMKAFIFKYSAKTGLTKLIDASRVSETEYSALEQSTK

[15] = Tmax in ICR mouse at 30 mg/kg, po measured upto 48 hrs; type: ADME, organism-based; details: in vivo
[16] = Cmax in ICR mouse at 3 mg/kg, iv measured upto 48 hrs; type: ADME, organism-based; parameters: route intravenous, dose 3 mg/kg, time <=48; details: in vivo
[17] = Cmax in ICR mouse at 30 mg/kg, po measured upto 48 hrs; type: ADME, organism-based; parameters: route oral, dose 30 mg/kg, time <=48; details: in vivo
[18] = AUC (0 to t) in ICR mouse at 30 mg/kg, po measured upto 48 hrs; type: ADME, organism-based; parameters: route oral, dose 30 mg/kg, time <=48; details: in vivo
[19] = AUC (0 to infinity) in ICR mouse at 3 mg/kg, iv measured upto 48 hrs; type: ADME, organism-based; parameters: route intravenous, dose 3 mg/kg, time <=48; details: in vivo
[20] = Apparent volume of distribution in ICR mouse at 3 mg/kg, iv measured upto 48 hrs; type: ADME, organism-based; details: in vivo, read-out: Vz
[21] = Clearance in ICR mouse at 30 mg/kg, po measured upto 48 hrs; type: ADME, organism-based; details: ICR, in vivo
[22] = Oral bioavailability in ICR mouse at 30 mg/kg measured upto 48 hrs; type: ADME, organism-based; details: in vivo
Neutrophil = assay: In vivo antagonist activity at CXCR2 in carrageenan-induced C57BL/6 mouse air pouch inflammation model assessed as reduction in neutrophil infiltration into air pouch at 30 mg/kg, po bid administered after 3 days of carrageenan treatment for 3 days; type: functional, organism-based; details: time 3.0 day
Panc02 [23] = assay: Antitumour activity against mouse Panc02 cells xenografted in mouse assessed as tumour growth inhibition at 10 mg/kg, po bid […]; type: functional; details: read-out: TGI
Panc02 [24] = assay: Cytotoxicity against mouse Panc02 cells assessed as reduction in cell viability measured after 72 hrs by CCK8 assay; type: cell-based; details: panc02, 72 h
PANC-1 = assay: Cytotoxicity against human PanC-1 cells assessed as reduction in cell viability measured after 72 hrs by CCK8 assay; type: cell-based; details: PANC-1, 72 h
MIA PaCa-2 = assay: Cytotoxicity against human MIA PaCa-2 cells assessed as reduction in cell viability measured after 72 hrs by CCK8 assay; type: cell-based; details: MIA PaCa-2, 72 h
[25] = Cytotoxicity against human PBMC cells assessed as reduction in cell viability measured after 72 hrs by CCK8 assay; type: cell-based
Panc02 [26] = assay: Antitumour activity against mouse Panc02 cells xenografted in mouse assessed as change in Gr1 expressing immune cells infiltration into tumor tissue at 10 mg/kg, po bid measured after 15 days by flow cytometry analysis (reference value: 27.4%); type: functional; details: time 15 day
Panc02 [27] = assay: Antitumour activity against mouse Panc02 cells xenografted in mouse assessed as change in CD11b expressing immune cells infiltration into tumor tissue using LY6G antibody at 10 mg/kg, po bid measured after 15 days by flow cytometry analysis (reference value: 29.7%); type: functional; details: time 15 day
Mus musculus = assay: Effect on granulocytic MDSCs level in mouse xenografted with […] cells at 10 to 30 mg/kg, po bid measured after 15 days by immunohistochemical analysis; type: ADME, organism-based; details: in vivo, 360 h, dose 10-30 mg/kg, time 15 day
Panc02 [28] = assay: Antitumour activity against mouse Panc02 cells xenografted in mouse assessed as upregulation of infiltration of CD3+ T cell into tumor tissue treated po twice a day measured after 15 days by immunohistochemical analysis; type: functional, organism-based; details: dose 10-30 mg/kg, time 15.0 day

Cc1c(F)cccc1NC(=O)Nc1ccc2c(c1O)S(=O)(=O)CCC2
IC50 [1]: 95 nM
Ki [2]: 1240 nM
Activity [3]: 49%
Activity [4]: < 10%
Activity [5]: 13%
Activity [6]: 10%
Activity [7]: 14%
Activity [8]: < 10%
Activity [9]: < 10%
Activity [10]: < 10%
Activity [11]: 12%
Activity [12]: < 10%
Activity [13]: < 10%
Activity [14]: < 10%
Tmax [15]: 1.41 h
Cmax [16]: 873 ng/mL
Cmax [17]: 19 ng/mL
AUC(0-t) at 48 h [18]: 218 ng·h/mL
AUC(0-inf) [19]: 365 ng·h/mL
Vd [20]: 49 L/kg
CL/F [21]: 2190 mL/min/kg
bioavailability [22]: 6.1%
Activity (Neutrophil): Active
inhibition in vivo at 10 mg/kg (Panc02 [23]): 42.5%
Activity (Panc02 [24]): Non-Toxic
IC50 (PANC-1): > 10000 nM
IC50 (MIA PaCa-2): > 10000 nM
IC50 [25]: > 10000 nM
Activity (Panc02 [26]): 11.2%
Activity (Panc02 [27]): 14%
Activity (Mus musculus): Non-Toxic
Activity (Panc02 [28]): Dose-Dependent Effect

— ChEMBL document CHEMBL5032530, “Discovery of Benzocyclic Sulfone Derivatives as Potent CXCR2 Antagonists for Cancer Immunotherapy” (J Med Chem, 2021)
